Experimental data as given in paper PMC8041304, “Halogen Atoms in the Protein–Ligand System. Structural and Thermodynamic Studies of the Binding of Bromobenzotriazoles by the Catalytic Subunit of Human Protein Kinase CK2” (The Journal of Physical Chemistry. B, 2021).
Values joined by “and” are separate entries in the source; they are usually repeats but may differ in a detail not shown here. Equal values may be shown once.

Assays:
[1] = design: method as in PMID 32162783; conditions: HPLC-derived hydrophobicity; cited from earlier work
[2] = design: method as in doi:10.1016/j.molliq.2019.111527; conditions: calculated water–octanol partition coefficient; cited from earlier work
[3] = Density measurements: partial molar volume and thermal expansivity of the solute; type: physicochemical; conditions: 50 mM phosphate buffer pH 11; for α2^0, thermal volumetric expansivity of the solute: 20, 25, 30 °C; for V2^0, partial molar volume: 25 °C
Method: Partial molar volumes were estimated with a density meter Anton Paar DMA 5000 M at 20, 25, and 30 °C from the concentration–density dependency for compounds dissolved in 50 mM phosphate buffer (pH 11). The experimental procedure and the data analysis method were described previously.[36],[57],[58] The partial molar volume at 25 °C (V2^0) and thermal volumetric expansivity of the solute (α2^0 = ∂V2^0/∂T) were estimated globally from two independent dilution series. The density of pure solvent (d0) was extrapolated individually for each experimental condition (i.e., temperature and buffer preparation). The change of d0 with temperature was further used to determine thermal volumetric expansivity coefficient of the bulk buffer according to the formula α0 = −(∂d0/∂T)/d0.
According to the Lum, Chandler, and Weeks (LCW) theory, the hydrophobic interactions scale for solutes of subnanometer size with the volume of the molecule rather than its surface.[61] We have recently proposed partial molar volume as the extensive parameter to describe both the solute volume and the solute-induced reorganization of the solvation shell.[36],[57],[58],[62],[63] By analyzing density data at three temperatures (20, 25, and 30 °C), we could estimate the partial molar volume of the ligand (V2^0) and the bulk solvent density (d0(T)). We could further separate the thermal expansivity coefficient of the bulk solvent (α0) and the apparent expansivity of the solute (α2^0). The latter parameter is comprised mainly of the thermal expansion effect of the hydration shell. The values of α0 fell within the narrow range of (26.9 ± 1.3) × 10^–5 K^–1, which is close to the literature data for water (25.72 × 10^–5 K^–1 at 25 °C).[64] […] The solute thermal expansivity (α2^0), together with the change of isobaric heat capacity upon ligand binding (ΔCp,bind), has already been associated with the properties of the solvation layer.[65],[66] Importantly, α2^0 is proportional to the partial molar volume V2^0 (Figure 3D). So, V2^0 may be another descriptor of hydrophobic interactions. Consequently, the volume-normalized solute expansivity coefficient (α = α2^0/V2^0) is almost the same for all studied bromobenzotriazoles (232 ± 22 × 10^–5 K^–1). Importantly, this value substantially exceeds the thermal expansivity coefficient of the bulk buffer (α0 = 26.9 ± 1.3 × 10^–5 K^–1), clearly confirming that water organization changes with temperature more near the solute surface than in the bulk.

[4] = biological target: T1, hCK2α (Homo sapiens, UniProt P68400); assay: Isothermal titration calorimetry (MicroCal iTC200), reverse titration; type: binding; conditions: for ΔGbind, free energy of binding: ITC; for ΔSrt, entropic term for loss of ligand rotational and translational degrees of freedom: calculated from ligand molecular mass; for Ts, temperature at which the entropy change upon ligand binding is zero: estimated from the linear fit of ΔS(T); for ΔSother, entropy change assigned to all other processes accompanying ligand binding: ΔSrt + ΔSHE(Ts) + ΔSother = 0; for ΔSHE(Ts), hydrophobic-effect contribution to the entropy change upon binding: ≈ 1.35∙ΔCp,bind∙ln(Ts/386)
T1 construct: made in house
T1 sequence (P68400 whole entry): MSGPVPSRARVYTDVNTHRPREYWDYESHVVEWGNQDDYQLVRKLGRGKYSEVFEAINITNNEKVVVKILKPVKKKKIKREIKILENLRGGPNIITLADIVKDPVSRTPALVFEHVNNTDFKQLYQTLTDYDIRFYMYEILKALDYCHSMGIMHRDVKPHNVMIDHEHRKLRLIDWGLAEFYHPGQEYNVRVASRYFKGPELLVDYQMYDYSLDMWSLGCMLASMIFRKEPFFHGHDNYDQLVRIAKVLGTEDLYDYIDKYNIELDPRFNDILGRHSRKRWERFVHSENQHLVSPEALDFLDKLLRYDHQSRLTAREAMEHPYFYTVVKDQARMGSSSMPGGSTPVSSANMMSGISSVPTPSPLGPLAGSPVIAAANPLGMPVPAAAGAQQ
Method: ITC measurements were carried out using the MicroCal iTC200 (Malvern) calorimeter. The hCK2α samples were diluted to the required protein concentration with the 25 mM Tris-HCl pH 8 buffer containing 0.5 M NaCl. Stock ligand solutions were diluted with the appropriate DMSO volume prior to mixing with the buffer to obtain the required ligand concentration and a final DMSO content of 1%. Due to the limited solubility of halogenated benzotriazoles, all titration experiments were performed in the reverse mode, in which buffered ligand solution was placed in the calorimetric cell and titrated with the protein solution.[35]
In all experiments the maximum ligand concentration of 10 μM was used to minimize a possible contribution of the secondary binding site.

[5] = biological target: T1, hCK2α; design: method as in PMID 23155426; conditions: pH 7.5; cited from earlier work
[6] = biological target: T1, hCK2α; design: method as in PMID 25891901; conditions: cited from earlier work
[7] = biological target: T1, hCK2α; assay: Fluorescence-monitored thermal denaturation (nanoDSF) of hCK2α complexes; type: binding; conditions: protein 2.5 μM, ligand 25 μM; for Tm (°C) at pH 7.5: hCK2α in complex with ligand; for ΔTm (°C) at pH 7.5: unfolding temperature with ligand minus without
Method: The samples were loaded into nanoDSF grade Standard Capillaries (NanoTemper Technologies) and analyzed using the Prometheus NT.48 nanoDSF device (NanoTemper Technologies). Thermal unfolding of the protein was monitored using a linear thermal ramp (1 °C·min^–1; 20–80 °C) with an excitation power of 30%.
This prompted us to measure the thermal stabilities of hCK2α and its complexes at pH 7.5 by fluorescence-monitored thermal denaturation (nanoDSF) (Table 2).

[8] = iTC200, 15 °C, pH 8, independent experiments separately evaluated
[9] = iTC200, 20 °C, pH 8, independent experiments separately evaluated
[10] = iTC200, 25 °C, pH 8, independent experiments separately evaluated
[11] = iTC200, 30 °C, pH 8, independent experiments separately evaluated
[12] = iTC200, 35 °C, pH 8, independent experiments separately evaluated

SMILES	log(τ) [1]	log P [2]	α2^0, thermal volumetric expansivity of the solute [3] [cm^3·mol^–1·K^–1]	V2^0, partial molar volume [3] [cm^3·mol^–1]	ΔGbind, free energy of binding ([4]; 25 °C, pH 8)	ΔSrt, entropic term for loss of ligand rotational and translational degrees of freedom [4] [J∙mol-1∙K-1]	Ts, temperature at which the entropy change upon ligand binding is zero [4] [K]	Kd [4, 8]	ΔS [4, 8]	Kd [4, 9]	ΔS [4, 9]	Kd [4, 10]	Kd [4, 11]	Kd [4, 12]	ΔSother, entropy change assigned to all other processes accompanying ligand binding [4] [J∙mol-1∙K-1]	ΔSHE(Ts), hydrophobic-effect contribution to the entropy change upon binding [4] [J∙mol-1∙K-1]	IC50 [5] [µM]	ΔTm (°C) at pH 8 [6] [°C]	Tm (°C) at pH 7.5 [7] [°C]	ΔTm (°C) at pH 7.5 [7] [°C]	further results
Brc1c(Br)c(Br)c2[nH]nnc2c1Br [4,5,6,7-Br4Bt, 4,5,6,7-tetrabromobenzotriazole]	–0.00	3.58	0.72 ± 0.28	194.1 ± 1.1	–	–	–	–	–	–	–	–	–	–	–	–	–	–	–	–	–
Brc1cc(Br)c2[nH]nnc2c1Br [4,5,7-Br3Bt]	–0.22	2.98	0.55 ± 0.23	174.7 ± 0.9	–34.5 ± 0.4 kJ·mol^–1	-301	316 ± 33	670 nM and 760 nM	69 ± 8 J·mol-1·K-1 and 56 ± 8 J·mol-1·K-1	710 nM and 1200 nM	53 ± 6 J·mol-1·K-1 and 47 ± 11 J·mol-1·K-1	900 nM and 910 nM	1360 nM and 760 nM	1230 nM and 870 nM	118 ± 16	184 ± 16	5.8 ± 0.9	5.2 ± 0.1	49.81 ± 0.07	4.6 ± 0.1	ΔG [4, 10]: -34.5 ± 0.5 kJ/mol and -34.5 ± 0.8 kJ/mol; ΔS [4, 10]: 34 ± 5 J·mol-1·K-1 and 38 ± 9 J·mol-1·K-1; ΔS [4, 11]: 24 ± 8 J·mol-1·K-1 and 34 ± 6 J·mol-1·K-1; ΔS [4, 12]: 15 ± 6 J·mol-1·K-1 and 8 ± 6 J·mol-1·K-1
Brc1ccc2[nH]nnc2c1Br [4,5-Br2Bt]	–0.39	2.34	0.36 ± 0.21	151.7 ± 0.9	–34.9 ± 0.4 kJ·mol^–1	-291	299 ± 37	260 nM and 470 nM	21 ± 6 J·mol-1·K-1 and 22 ± 6 J·mol-1·K-1	610 nM and 540 nM	8 ± 6 J·mol-1·K-1 and 7 ± 15 J·mol-1·K-1	770 nM and 670 nM	880 nM and 1430 nM	1440 nM and 1160 nM	143 ± 17	148 ± 17	10.6 ± 0.9	3.5 ± 0.1	49.55 ± 0.05	4.4 ± 0.1	ΔH [4, 9]: -33.0 ± 1.5 kJ/mol and -33.0 ± 3.7 kJ/mol
Brc1cc(Br)c2n[nH]nc2c1 [4,6-Br2Bt]	–0.38	2.37	0.41 ± 0.21	155.4 ± 0.9	–34.5 ± 0.4 kJ·mol^–1	-291	301 ± 47	343 nM and 540 nM	26 ± 8 J·mol-1·K-1 and 23 ± 12 J·mol-1·K-1	550 nM and 680 nM	7 ± 15 J·mol-1·K-1 and 11 ± 13 J·mol-1·K-1	900 nM and 880 nM	1250 nM and 1140 nM and 840 nM	2400 nM and 1770 nM	143 ± 20	148 ± 20	10 ± 2.2	3.6 ± 0.1	49.21 ± 0.04	4.0 ± 0.1	ΔS [4, 10]: 5 ± 8 J·mol-1·K-1 and 9 ± 15 J·mol-1·K-1; ΔS [4, 12]: -26 ± 71 J·mol-1·K-1 and -26 ± 13 J·mol-1·K-1
Brc1ccc(Br)c2n[nH]nc12 [4,7-Br2Bt]	–0.55	2.37	0.19 ± 0.25	149.8 ± 1.0	–	–	–	–	–	–	–	–	–	–	–	–	72 ± 11	0.9 ± 0.1	47.15 ± 0.03	2.0 ± 0.1	–
Brc1cccc2n[nH]nc12 [4-BrBt]	–0.65	1.72	0.30 ± 0.08	139.6 ± 0.3	–	–	–	–	–	–	–	–	–	–	–	–	119 ± 10	0.5 ± 0.1	45.92 ± 0.05	0.7 ± 0.1	–
